Our source for the GI50 and TGI values is PubChem BioAssay (NCI).

This test has as its system MDA-MB-468 breast. As to the kind of experiment: DTP human tumour cell line panel, 48 h.

Several values for one entry are separate records, joined by “and”; a condition that tells them apart may be missing. Equal entries are not always repeated.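 The compound was tested at five concentrations on cells cultured in 96-well plates, with a 48-hour exposure period. Here, GI50 denotes the concentration required for 50% inhibition of growth. TGI marks complete inhibition of growth.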 A value given as a limit tells only on which side of the number the result lay.

On to `Cc1ccc(-c2nc(N3CCNCC3)c3oc(-c4ccc(C)cc4)nc3n2)cc1`, for which the GI50 is 3290 nM and the TGI was over 21800 nM.
In the same order, the values of `CC(=C(c1ccc(OCCN2CCCCC2)cc1)c1ccc(OCCN2CCCCC2)cc1)c1ccc(Cl)cc1` are 402 nM and 809 nM.
In the same order, the values of `O=[N+]([O-])c1cc([N+](=O)[O-])c(C(F)(F)F)cc1NN=C(c1ccc(O)cc1)c1ccc(O)cc1` are 3210 nM and 15400 nM.
The like results for `CN1CCN(C(=O)COc2ccc(C34CC5CC(CC(C5)C3)C4)cc2)CC1` were, in that order, 9120 nM and 23100 nM.
Turning to `CNC(=O)c1cc(Oc2ccc3nc(NC(=O)c4ccc(CN5CCCN(C)CC5)c(C(F)(F)F)c4)sc3c2)ccn1`, the GI50 was 1190 nM and the TGI was 2590 nM.
`COC(=O)[C@]12CC[C@@H](C)[C@H](C)[C@@H]1C1=CC[C@@H]3[C@@]4(C)C[C@@H](O)[C@H](O)[C@@](C)(CO)[C@@H]4[C@H](O)C[C@@]3(C)[C@]1(C)CC2`: the GI50 is 10500 nM and the TGI was found to be 24800 nM.
In the same order, the values of `Cc1ccc(S(=O)(=O)N2C3C=CC(C3)[C@@H]2C(Cl)(Cl)Cl)cc1` (stereo partly drawn) are 6320 nM and 33100 nM.
In the same order, the values of `c1ccc(-c2n(Cc3ccc4ccccc4n3)cc[n+]2Cc2ccc3ccccc3c2)cc1` are 222 nM and 1090 nM.
For the compound `CCCCCCCCCCSC(=N)N` (tested in a mixture with another compound), the GI50 is 2100 nM and the TGI was 4860 nM.
For `COc1cc(-c2nn(-c3cccc(NC(=O)c4ccccc4)c3)cc2-c2ccncc2)ccc1Cl`, the GI50 is 349 nM and the TGI turned out to be 3420 nM.
In the same order, the values of `NC(=S)N/N=C\c1nccc2c(C(F)(F)F)cccc12` are 199 nM and 612 nM.
For `CN(C)CC(O)c1ccc(/C=C/c2ccc(Cl)cc2)cc1` (stereo not drawn), the GI50 was 1750 nM and the TGI was determined as 3830 nM.
In the same order, the values of `COc1ccc2ncnc(Nc3ccc(OCc4ccccc4)cc3)c2c1` are 2770 nM and 9080 nM.
As for `CC(C)[C@@H]1NC(=O)[C@]2(C)CSC(=N2)c2ccnc(c2)CNC(=O)C[C@@H](/C=C/CCS)OC1=O`, the GI50 is 569 nM.
For the compound `CCCn1cnc2c(c1=N)C(c1ccc(F)cc1)c1sc3c(CC)cccc3c1O2` (stereo not drawn), the GI50 is 350 nM and the TGI is over 100000 nM.
The like results for `CCCCCCOc1ccc(/C=N/Nc2cc(C)nc3ccc(Cl)cc23)cc1` were, in that order, 1650 nM and 3130 nM.
`C=CC(=O)Nc1cc(Nc2nccc(-c3cn(C)c4ccccc34)n2)c(OC)cc1N(C)CCN(C)C`: the GI50 was 27.1 nM and 47.2 nM; the TGI amounted to 332 nM.
In the case of `COc1ccc(C(c2cc(OC)c(OC)c(OC)c2)n2cncn2)cc1O` (stereo not drawn), the GI50 was 371 nM and the TGI was over 100000 nM.
In the same order, the values of `CCNC(=O)C#Cc1ccc2c(C(=Nc3ccc(CN(C)C)cc3)c3ccccc3)c(O)[nH]c2c1` are 62.1 nM and 914 nM.
In the same order, the values of `CC1(C)[C@@H](NOCCCN)CC[C@]2(C)[C@H]3C(=O)C=C4[C@@H]5C[C@](C)(C(=O)O)CC[C@]5(C)CC[C@@]4(C)[C@]3(C)CC[C@@H]12` are 2360 nM and 5450 nM.
Regarding `C=C1C[C@H](O)[C@H](Br)C(C)(C)[C@@]12CCC(C)=C(Cl)C2`, the GI50 was 36.9 nM and the TGI is 397 nM.
In the same order, the values of `COc1ccc(C2c3cc4c(cc3OC3(OC)COC(=O)C23)OCO4)c(OC)c1` (stereo not drawn) are 9240 nM and over 100000 nM.
`Cc1ccc(NC2=C3CCCCC3OC2=O)cc1` (stereo not drawn): the GI50 was 21900 nM and the TGI was over 100000 nM.
The like results for `OC(c1cc(C(F)(F)F)nc2c(C(F)(F)F)cccc12)C1CCCCN1` (stereo not drawn) were, in that order, 1630 nM and 3370 nM.
In the same order, the values of `NCCNCCNCCN` are over 100000 nM and over 100000 nM.
In the same order, the values of `Cc1cc(Nc2ccc(C)c(Cl)c2)n2nc(C(F)(F)F)nc2n1` are 18700 nM and 61600 nM.
Regarding `COCCn1cc(-c2nc(-c3cc4cccnc4[nH]3)cs2)c2cc(OC)ccc21`, the GI50 was 31.7 nM and the TGI stood at 192 nM.
In the same order, the values of `COc1c2ccccc2c(OC)c2[nH]c(=O)ccc12` are 4770 nM and over 91700 nM.
In the same order, the values of `O=C(Nc1cccc(C(F)(F)F)c1)Nc1cccc(C(F)(F)F)c1` are 675 nM and 3170 nM.
The like results for `CC[C@@H](c1ccc(O)c(O)c1)[C@@H](CC)c1ccc(O)c(O)c1` were, in that order, 2090 nM and 5510 nM.
For the compound `O=C1NC(=NCc2ccccc2)S/C1=C\c1ccc2ncccc2c1`, the GI50 was over 16200 nM and the TGI was over 25000 nM.
In the same order, the values of `c1ccc(Nc2ncc(-c3ccccc3)o2)cc1` are 8410 nM and over 25000 nM.
In the same order, the values of `COc1cc(/C=C2\CN(S(=O)(=O)c3ccc(C)cc3)C/C(=C\c3cc(CN4CCCC4)c(O)c(OC)c3)C2=O)cc(CN2CCCC2)c1O` are 1150 nM and 2650 nM.
The like results for `COc1ccccc1NC(=O)c1cc2cc(Br)ccc2cc1O` were, in that order, 2790 nM and 7870 nM.
In the case of `CCN(CC)c1ccc(/C=N/NC(=O)c2ccc(S(N)(=O)=O)cc2)c(O)c1`, the GI50 was 258 nM and the TGI was 1140 nM.
The like results for `O=C1c2ccccc2C(=O)c2c(/C=C\N3CCCCC3)ccnc21` were, in that order, 12900 nM and 26800 nM.
`COc1ccc(Cn2c(Br)c3c(c2Br)-c2nc(N)sc2CC3)cc1`: the GI50 is 1900 nM and the concentration for total growth inhibition (TGI) is 14000 nM.
In the same order, the values of `NC(=S)N/N=C1\c2cc(Cl)ccc2-c2c1cc(Cl)cc2[N+](=O)[O-]` are 3070 nM and 9030 nM.
In the same order, the values of `COC(=O)/C=C/c1cc(OC(C)=O)c2c(c1)[C@@H](C(=O)OC)[C@H](c1ccc(OC(C)=O)c(OC(C)=O)c1)O2` are 380 nM and 13700 nM.
As for `CCOC(=O)n1cc(C2=C(c3ccc(OC)c(OC)c3)COC2=O)c2ccccc21`, the GI50 is 35.7 nM and the TGI is over 100000 nM.
In the same order, the values of `COc1cc(-c2nc3sccn3c2-c2ccnc(NCCNS(=O)(=O)c3ccc(F)cc3)n2)ccc1F` are 2720 nM and over 100000 nM.
`C#Cc1cccc(Nc2nc3cc([N+](=O)[O-])ccc3nc2Nc2ccc(O)cc2)c1`: the GI50 was 1430 nM and the TGI turned out to be 3260 nM.
In the same order, the values of `O=C1OCC2=C1C(c1cccc(Br)c1)c1cc3c(cc1N2CCO)OCCO3` (stereo not drawn) are 25.8 nM and 181 nM.
With `O=C(Nc1nn2c(-c3cc(C(F)(F)F)cc(C(F)(F)F)c3)nnc2s1)C1CCCC1`, the GI50 is 356 nM and the TGI was found to be 4350 nM.
The like results for `CC(C)(C)[Si](C)(C)OC1[C@@H](O[Si](C)(C)C(C)(C)C)[C@@H](CNC(=O)NC(=O)C(F)(F)F)O[C@H]1n1cnc2c(NC(=O)Nc3ccccc3)ncnc21` (stereo partly drawn) were, in that order, 2180 nM and 9160 nM.
The like results for `CCN1C(=O)N(CC)C2SC(N/N=C/C=C/c3ccccc3OC)=NC21` (stereo not drawn) were, in that order, 326 nM and 48900 nM.
In the same order, the values of `Nc1nc2[nH]cc(CCc3ccc(C(=O)N[C@@H](CCC(=O)O)C(=O)O)cc3)c2c(=O)[nH]1` are 2570 nM and over 100000 nM.
Regarding `N=C(N)c1ccc(OCCCCCCCCCCOc2ccc(C(=N)N)cc2)cc1`, the GI50 was 414 nM and the concentration for total growth inhibition (TGI) was 1800 nM.
In the case of `CN1CCN(c2ccc(Nc3ncc(Cl)c(NC[C@@H]4CCCO4)n3)cc2)CC1`, the GI50 is 2180 nM and the TGI was found to be 6640 nM.
The like results for `C#CC(=O)N(c1ccc(OC)cc1OC)C(C(=O)NCC(=O)OCC)c1cccs1` (stereo not drawn) were, in that order, 316 nM and 1170 nM.
In the same order, the values of `CC(=O)N[C@@H](Cc1ccc(OP(=O)(O)O)cc1)C(=O)N[C@H]1CCC(=O)N2CCC[C@@H](C(=O)Nc3cccc4ccccc34)N2C1=O` are over 25000 nM and over 25000 nM.
The like results for `C=C1C(=O)O[C@H]2[C@H]1CC/C(CNC(=O)c1cc3ccccc3[nH]1)=C\CC[C@@]1(C)O[C@@H]21` were, in that order, 1050 nM and 3600 nM.

Usually GI50 stands for the concentration at which growth is held to half of that of the control. Usually TGI stands for the concentration giving total growth inhibition.
